# Laboratory results: EP1561465A2, “Methods of use of fluoroquinolone compounds against bacteria” (LG Life Sciences, Ltd., priority 1999, dated 2001)
# Like-named read-outs stand apart in the source and are kept apart here.
# Key:
# [1] = test system: Hafnia alvei; assay: MIC by agar dilution (NCCLS M7-A4), 288 enteropathogenic isolates, gemifloxacin and 15 other antimicrobials; type: cell-based
# [2] = test system: Yersinia enterocolitica; assay: as above; type: cell-based
# [3] = test system: Campylobacter jejuni; assay: as above
# [4] = test system: Salmonella spp.; assay: as above; type: cell-based; conditions: for susceptible isolates: breakpoints; for MIC: Salmonella
# [5] = test system: Shigella spp.; assay: as above; type: cell-based; conditions: for susceptible isolates: breakpoints
# Description: [A. hydrophila (12), and A. sobria (4)], and 91 Campylobacter jejuni. […] The strains were stored in skimmed-milk at -80 °C until studied.
# The plates were incubated aerobically at 35 °C for 24 h, except for Campylobacter jejuni, where a microaerophilic atmosphere was obtained by using Campy Pack (Becton Dickinson, Cockeysville, MD, USA), and incubation was for 48 h. All organisms were tested with an inoculum of ≅ 10^4 cfu/spot. MICs were defined as the lower antibiotic concentration with no visible growth.
# [6] = test system: Aeromonas spp.; assay: as above; type: cell-based
# [7] = test system: Enterococcus faecalis; assay: MIC by agar macrodilution (NCCLS), 373 Gram positive isolates, Athens 1998; type: cell-based; conditions: for MIC50: read-out: MIC50
# [8] = test system: Streptococcus pneumoniae; assay: MIC by agar dilution (NCCLS), 411 isolates Buenos Aires 1998-99; type: cell-based; conditions: S. pneumoniae
# [9] = 24 h, Hafnia alvei N= 32, read-out: MIC (mg/L) Range
# [10] = read-out: MIC (mg/L) 50%, Hafnia alvei N= 32
# [11] = read-out: MIC (mg/L) 90%, Hafnia alvei N= 32
# [12] = 24 h, Yersinia enterocolitica N= 22, read-out: MIC (mg/L) Range
# [13] = read-out: MIC (mg/L) 50%, Yersinia enterocolitica N= 22
# [14] = read-out: MIC (mg/L) 90%, Yersinia enterocolitica N= 22
# [15] = Campylobacter jejuni, read-out: MIC (mg/L) 50%
# [16] = Campylobacter jejuni, read-out: MIC (mg/L) 90%
# [17] = read-out: MIC (mg/L) 50%, Salmonella spp. N= 106
# [18] = read-out: MIC (mg/L) 90%, Salmonella spp. N= 106
# [19] = read-out: MIC (mg/L) 50%, Shigella spp. N= 21
# [20] = read-out: MIC (mg/L) 90%, Shigella spp. N= 21
# [21] = read-out: MIC (mg/L) 50%, Aeromonas spp. N= 16
# [22] = read-out: MIC (mg/L) 90%, Aeromonas spp. N= 16
# [23] = number of isolates at MIC […], n = 81
# [24] = number of isolates with MIC […], 14 isolates
compound,measurement,setting,value
"CO/N=C(\C(=O)N[C@@H]1C(=O)N2C(C(=O)O)=C(COC(C)=O)CS[C@H]12)c1csc(N)n1 [Cefotaxime, cefotaxime]",MIC,[1]; [9],0.12 to 0.5 mg/L
same,susceptible isolates,"[1]; Hafnia alvei, breakpoints",100%
same,MIC,[1]; [10],0.25 mg/L
same,MIC,[1]; [11],0.5 mg/L
same,MIC,[2]; [12],0.06 to 0.12 mg/L
same,susceptible isolates,"[2]; Yersinia enterocolitica, breakpoints",100%
same,MIC,[2]; [13],0.06 mg/L
same,MIC,[2]; [14],0.06 mg/L
same,susceptible isolates,"[3]; C. jejuni, breakpoints",57%
same,MIC (mg/L) Range,[3]; Campylobacter jejuni N= 91,2 to 32 mg/L
same,MIC,[3]; [15],8 mg/L
same,MIC,[3]; [16],16 mg/L
same,MIC (mg/L) Range,[4]; Salmonella spp. N= 106,0.06 to 0.5 mg/L
same,susceptible isolates,[4]; Salmonella spp.,100%
same,MIC,[4]; [17],0.12 mg/L
same,MIC,[4]; [18],0.12 mg/L
same,MIC,"[5]; 24 h, Shigella spp. N= 21, read-out: MIC (mg/L) Range",0.015 to 0.03 mg/L
same,susceptible isolates,[5]; Shigella spp.,100%
same,MIC,[5]; [19],≤ 0.015 mg/L
same,MIC,[5]; [20],0.03 mg/L
same,MIC (mg/L) Range,[6]; Aeromonas spp. N= 16,≤0.015 to 0.12 mg/L
same,susceptible isolates,"[6]; Aeromonas spp., breakpoints",100%
same,MIC,[6]; [21],0.03 mg/L
same,MIC,[6]; [22],0.12 mg/L
"C[C@H]1c2cccc(O)c2C(=O)C2=C(O)[C@]3(O)C(=O)C(C(N)=O)=C(O)[C@@H](N(C)C)[C@@H]3[C@@H](O)[C@@H]21 [Doxycycline, doxycycline]",MIC,[1]; [9],1 to 16 mg/L
same,Rates of non-susceptible microorganisms,[1]; Hafnia alvei,22%
same,MIC,[1]; [10],2 mg/L
same,MIC,[1]; [11],8 mg/L
same,MIC,[2]; [12],0.25 to 8 mg/L
same,Rates of non-susceptible microorganisms,[2]; Yersinia enterocolitica,5%
same,MIC,[2]; [13],1 mg/L
same,MIC,[2]; [14],2 mg/L
same,Rates of non-susceptible microorganisms,[3]; Campylobacter jejuni,40%
same,MIC (mg/L) Range,[3]; Campylobacter jejuni N= 91,0.06 to 64 mg/L
same,MIC,[3]; [15],16 mg/L
same,MIC,[3]; [16],32 mg/L
same,Rates of non-susceptible microorganisms,[4]; Salmonella spp.,22%
same,MIC (mg/L) Range,[4]; Salmonella spp. N= 106,1 to 128 mg/L
same,MIC,[4]; [17],2 mg/L
same,MIC,[4]; [18],16 mg/L
same,Rates of non-susceptible microorganisms,[5]; Shigella spp.,43%
same,MIC,"[5]; Shigella, 24 h, read-out: MIC (mg/L) Range",0.5 to 32 mg/L
same,MIC,"[5]; Shigella, read-out: MIC (mg/L) 50%",16 mg/L
same,MIC,"[5]; Shigella, read-out: MIC (mg/L) 90%",32 mg/L
same,MIC (mg/L) Range,[6]; Aeromonas spp. N= 16,0.25 to 4 mg/L
same,MIC,[6]; [21],0.5 mg/L
same,MIC,[6]; [22],2 mg/L
CC1(C)S[C@@H]2[C@H](NC(=O)[C@H](N)c3ccccc3)C(=O)N2[C@H]1C(=O)O [ampicillin],MIC,[1]; [9],2 to 64 mg/L
same,MIC,[1]; [10],16 mg/L
same,MIC,[1]; [11],64 mg/L
same,MIC,[2]; [12],32 to 64 mg/L
same,susceptibility of isolates,[2]; Yersinia enterocolitica,non susceptible
same,MIC,[2]; [13],32 mg/L
same,MIC,[2]; [14],64 mg/L
same,MIC,[3]; [15],8 mg/L
same,MIC,[3]; [16],32 mg/L
same,Rates of non-susceptible microorganisms,[4]; Salmonella spp.,23%
same,susceptible isolates,[4]; Salmonella spp.,77%
same,MIC,[4]; [17],4 mg/L
same,MIC,[4]; [18],> 128 mg/L
same,susceptible isolates,[5]; Shigella spp.,43%
same,MIC,[5]; [19],64 mg/L
same,MIC,[5]; [20],> 128 mg/L
same,susceptibility of isolates,[6]; Aeromonas spp.,non susceptible
same,MIC,[6]; [21],> 128 mg/L
same,MIC,[6]; [22],> 128 mg/L
CC[C@H]1OC(=O)[C@H](C)[C@@H](O[C@H]2C[C@@](C)(OC)[C@@H](O)[C@H](C)O2)[C@H](C)[C@@H](O[C@@H]2O[C@H](C)C[C@H](N(C)C)[C@H]2O)[C@](C)(O)C[C@@H](C)C(=O)[C@H](C)[C@@H](O)[C@]1(C)O [erythromycin],MIC50,"[7]; Enterococcus faecalis, continuation of the preceding table (title not shown), 14 isolates",≥ 32 µg/mL
same,MIC50,"[7]; Enterococcus faecalis, n = 81 isolates",8 µg/mL
same,MIC90,"[7]; Enterococcus faecalis, n = 81 isolates, read-out: MIC90",≥ 32 µg/mL
same,MIC90,"[7]; continuation of the preceding table (title not shown), 14 isolates",≥32 µg/mL
same,MIC distribution (µg/ml) 0.03,"[7]; number of isolates at MIC 0.03 µg/ml, n = 81",0
same,MIC distribution (µg/ml) 0.06,"[7]; number of isolates at MIC 0.06 µg/ml, n = 81",0
same,MIC distribution (µg/ml) 0.5,"[7]; number of isolates at MIC 0.5 µg/ml, n = 81",1
same,MIC distribution (µg/ml) 1,"[7]; number of isolates at MIC 1 µg/ml, n = 81",2
same,MIC distribution (µg/ml) 2,"[7]; number of isolates at MIC 2 µg/ml, n = 81",12
same,MIC distribution (µg/ml) 4,"[7]; number of isolates at MIC 4 µg/ml, n = 81",16
same,MIC distribution (µg/ml) 8,"[7]; number of isolates at MIC 8 µg/ml, n = 81",4
same,MIC distribution (µg/ml) 16,"[7]; number of isolates at MIC 16 µg/ml, n = 81",1
same,MIC distribution (µg/ml) 0.125,[7]; [23],1
same,MIC distribution (µg/ml) 0.25,[7]; [23],1
same,MIC distribution (µg/ml) ≤0.015,"[7]; number of isolates at MIC ≤[…], n = 81",0
same,MIC distribution (µg/ml) ≥32,"[7]; number of isolates at MIC ≥32 µg/ml, n = 81",39
same,MIC distribution (µg/ml) 0.03,"[7]; number of isolates with MIC 0.03 µg/ml, 14 isolates",0
same,MIC distribution (µg/ml) 0.06,"[7]; number of isolates with MIC 0.06 µg/ml, 14 isolates",0
same,MIC distribution (µg/ml) 0.5,"[7]; number of isolates with MIC 0.5 µg/ml, 14 isolates",0
same,MIC distribution (µg/ml) 1,"[7]; number of isolates with MIC 1 µg/ml, 14 isolates",0
same,MIC distribution (µg/ml) 2,"[7]; number of isolates with MIC 2 µg/ml, 14 isolates",2
same,MIC distribution (µg/ml) 4,"[7]; number of isolates with MIC 4 µg/ml, 14 isolates",2
same,MIC distribution (µg/ml) 8,"[7]; number of isolates with MIC 8 µg/ml, 14 isolates",1
same,MIC distribution (µg/ml) 16,"[7]; number of isolates with MIC […] µg/ml, 14 isolates",0
same,MIC distribution (µg/ml) 0.125,[7]; [24],0
same,MIC distribution (µg/ml) 0.25,[7]; [24],0
same,MIC distribution (µg/ml) ≤0.015,"[7]; number of isolates with MIC ≤[…], 14 isolates",0
same,MIC distribution (µg/ml) ≥32,"[7]; number of isolates with MIC ≥[…] µg/ml, 14 isolates",9
same,isolates inhibited by a concentration ≤0.5 mg/l,[3]; C. jejuni,77%
same,concentration inhibiting all the other isolates,[3]; C. jejuni isolates other than the highly resistant strain,≤ 4 mg/L
same,MIC,[3]; Campylobacter jejuni,128 mg/L
same,MIC,[3]; [15],0.5 mg/L
same,MIC,[3]; [16],1 mg/L
co-trimoxazole,isolates being resistant,[3]; C. jejuni,4%
same,Rates of non-susceptible microorganisms,[4]; Salmonella spp.,4%
same,isolates being resistant,[4]; Salmonella spp.,4%
same,MIC90,[8]; Penicillin intermediate (n = 17),8 µg/mL
same,MIC90,[8]; Penicillin resistant (n = 4),>16 µg/mL
same,MIC90,[8]; Penicillin susceptible (n = 69),8 µg/mL
colistin,% Susceptible,[1]; Hafnia alvei N= 32,6%
same,MIC (mg/L) 50%,[1]; Hafnia alvei N= 32,8 mg/L
same,MIC (mg/L) 90%,[1]; Hafnia alvei N= 32,16 mg/L
same,MIC (mg/L) Range,[1]; Hafnia alvei N= 32,0.5 to 16 mg/L
same,% Susceptible,[2]; Yersinia enterocolitica N= 22,100%
same,MIC (mg/L) 50%,[2]; Yersinia enterocolitica N= 22,1 mg/L
same,MIC (mg/L) 90%,[2]; Yersinia enterocolitica N= 22,1 mg/L
same,MIC (mg/L) Range,[2]; Yersinia enterocolitica N= 22,0.5 to 1 mg/L
same,% Susceptible,[3]; Campylobacter jejuni N= 91,3%
same,MIC (mg/L) 50%,[3]; Campylobacter jejuni N= 91,4 mg/L
same,MIC (mg/L) 90%,[3]; Campylobacter jejuni N= 91,8 mg/L
same,MIC (mg/L) Range,[3]; Campylobacter jejuni N= 91,1 to 32 mg/L
same,% Susceptible,[4]; Salmonella spp. N= 106,32%
same,MIC (mg/L) 50%,[4]; Salmonella spp. N= 106,8 mg/L
same,MIC (mg/L) 90%,[4]; Salmonella spp. N= 106,8 mg/L
same,susceptible isolates,[4]; Salmonella spp.,32%
same,% Susceptible,[5]; Shigella spp. N= 21,100%
same,MIC (mg/L) 50%,[5]; Shigella spp. N= 21,0.25 mg/L
same,MIC (mg/L) 90%,[5]; Shigella spp. N= 21,0.25 mg/L
same,MIC (mg/L) Range,[5]; Shigella spp. N= 21,0.25 mg/L
same,% Susceptible,[6]; Aeromonas spp. N= 16,81%
same,MIC (mg/L) 50%,[6]; Aeromonas spp. N= 16,2 mg/L
same,MIC (mg/L) 90%,[6]; Aeromonas spp. N= 16,4 mg/L
same,MIC (mg/L) Range,[6]; Aeromonas spp. N= 16,0.25 to 32 mg/L
